One test has as its system POSTN mRNA. The experiment in a line: POSTN mRNA by RT-qPCR in human nasal epithelial primary cells. The format is cell-based. The note with it: 5 μM or 1 μM, 3 x 24 hours with 20 ng/mL IL-13. The procedure: Human nasal epithelial primary cells (HNEpC) (PromoCell GmbH, Heidelberg, Germany) were cultured according to the manufacturer in provided Primary Cell media in 24 well plates at a density of 25,000 cells per well. Cells were treated with 5 μM or 1 μM of compound 5 or vehicle only (water) in media containing 20 ng/mL IL-13 for 24 hours in a 37° C. cell culture incubator. The following day, media was replaced and fresh media containing 20 ng/mL IL-13 and compound 5 or vehicle was added to each well, then incubated again for 24 hours in a 37° C. cell culture incubator. The process was repeated once more for a 24-hour period.
ALOX15 and POSTN mRNA levels were measured by RT-qPCR. […] The level of ALOX15 mRNA from each sample was measured in triplicate by real-time qPCR on an Applied Biosystems 7500 Fast Real-Time PCR machine using the TaqMan Gene Expression Assay for human ALOX15 (ThermoFisher, assay #Hs00993765_g1). The level of PPIA mRNA was measured in biplex reactions using TaqMan Gene Expression Assay (ThermoFisher, assay #Hs99999904_ml) and used to determine relative ALOX15 mRNA levels in each well using the delta-delta Ct method. […] Relative POSTN mRNA levels were measured as above using TaqMan Gene Expression Assay specific for human POSTN mRNA (ThermoFisher, assay #Hs00170815_m1). […]

Test [1] concerns the target T1, 15-lipoxygenase in primary peripheral blood eosinophils (Homo sapiens, UniProt P16050).
T1 sequence (P16050 1-662): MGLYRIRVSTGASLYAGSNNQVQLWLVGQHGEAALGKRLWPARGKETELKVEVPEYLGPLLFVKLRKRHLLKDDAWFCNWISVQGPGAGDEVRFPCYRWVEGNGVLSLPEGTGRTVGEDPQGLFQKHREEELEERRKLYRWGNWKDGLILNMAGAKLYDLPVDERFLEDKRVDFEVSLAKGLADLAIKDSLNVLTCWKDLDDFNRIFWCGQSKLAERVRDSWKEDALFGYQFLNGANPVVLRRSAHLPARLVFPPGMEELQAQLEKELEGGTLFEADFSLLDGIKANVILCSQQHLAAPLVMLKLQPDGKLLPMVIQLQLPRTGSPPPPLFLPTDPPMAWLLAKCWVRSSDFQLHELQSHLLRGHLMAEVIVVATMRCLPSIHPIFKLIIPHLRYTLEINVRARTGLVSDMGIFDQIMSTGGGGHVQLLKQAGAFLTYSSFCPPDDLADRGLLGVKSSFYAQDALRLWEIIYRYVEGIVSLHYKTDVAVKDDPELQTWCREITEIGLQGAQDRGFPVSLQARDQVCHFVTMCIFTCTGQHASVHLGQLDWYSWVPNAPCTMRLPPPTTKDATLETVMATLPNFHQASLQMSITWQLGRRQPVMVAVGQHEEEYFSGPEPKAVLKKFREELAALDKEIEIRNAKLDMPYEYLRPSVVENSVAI
The experiment in a line: Inhibition of 15-lipoxygenase in human primary eosinophils, 15(S)-HETE ELISA. The note with it: 3 μM arachidonic acid. For orientation: ELISA stands for enzyme-linked immunosorbent assay.
Method: Primary peripheral blood eosinophils from 2 separate donors (StemExpress) were thawed from frozen and allowed to recover in growth media for 4 hours at 37° C. Cells were washed with Hank's Balanced Salt Solution, then aliquoted into 96 well round bottomed plate at 1*10^5 cells/well, 200 μL/well. […] Arachidonic acid was added to final concentration of 3 μM and experiment started. At 1 hour post-treatment the supernatant was collected and 15(S)-HETE was quantified by ELISA (Cayman Chemical) according to manufacturer's recommended protocol. Comparisons were made between the cells treated with the test compounds and cells treated with vehicle only.

Regarding `O=C(Nc1ccc(F)cc1Cl)c1nn(COP(=O)(O)O)c(Cl)c1Cl` [compound 5, (4,5-dichloro-3-((2-chloro-4-fluorophenyl)carbamoyl)-1H-pyrazol-1-yl)methyl dihydrogen phosphate], in the test on POSTN mRNA, the “relative level of POSTN mRNA versus vehicle (FIG. 7)” value is reported as “lower”. The “decrease in 15-HETE production compared to vehicle or ALP alone (FIG. 2)” value in test [1] (10 μM pretreated 15 minutes with 0.2 U alkaline phosphatase (ALP), 1 hour) is given as “approximately 60%”; in test [1] (10 μM, 1 hour post-treatment), “approximately 40%”.

The record behind these values is patent US11116778B2, “Prodrugs of ALOX-15 inhibitors and methods of using the same” (EMPIRICO INC., priority 2019, dated 2021).
